Results published in ChEMBL document CHEMBL1914418, “Biochemical and pharmacological profiling of the pro-survival protein Bcl-xL” (Bioorg Med Chem Lett, 2011).

Assays:
[1] = target: T1, Bcl-2-like protein 2 (Homo sapiens, UniProt Q92843); experiment: Displacement of BODIPY-Bak conjugated peptide from GST-tagged human wild type Bcl-W expressed in Escherichia coli BL21 cells at 10 uM after 3 hrs by fluorescence polarization competition assay
T1 sequence (Q92843 whole entry): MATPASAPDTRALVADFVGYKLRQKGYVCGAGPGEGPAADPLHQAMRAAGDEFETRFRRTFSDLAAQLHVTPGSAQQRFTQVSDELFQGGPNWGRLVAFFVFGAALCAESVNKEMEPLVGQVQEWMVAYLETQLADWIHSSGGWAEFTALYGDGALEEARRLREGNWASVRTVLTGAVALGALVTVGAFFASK

[2] = target: T2, Bcl-2-like protein 1 (Homo sapiens, UniProt Q07817); experiment: Displacement of BODIPY-Bak conjugated peptide from GST-tagged human Wild type Bcl-2-like protein 1 expressed in Escherichia coli BL21 cells at 10 uM after 3 hrs by fluorescence polarization competition assay
[3] = target: T3, Bcl-2-like protein 1 (Homo sapiens, UniProt Q07817, L130V); experiment: Displacement of BODIPY-Bak conjugated peptide from GST-tagged human Bcl-2-like protein 1 L130V mutant expressed in Escherichia coli BL21 cells at 10 uM after 3 hrs by fluorescence polarization competition assay
[4] = target: Induced myeloid leukemia cell differentiation protein Mcl-1 homolog (Mus musculus, UniProt P97287); experiment: Displacement of BODIPY-Bak conjugated peptide from GST-tagged mouse wild type MCL1 expressed in Escherichia coli BL21 cells at 10 uM after 3 hrs by fluorescence polarization competition assay
[5] = target: T4, Bcl-2-like protein 1 (Homo sapiens, UniProt Q07817, L130G); experiment: Displacement of BODIPY-Bak conjugated peptide from GST-tagged human Bcl-2-like protein 1 L130G mutant expressed in Escherichia coli BL21 cells at 10 uM after 3 hrs by fluorescence polarization competition assay
[6] = target: Bcl-2-like protein 1 (Homo sapiens, UniProt Q07817, L130A); experiment: Displacement of BODIPY-Bak conjugated peptide from GST-tagged human Bcl-2-like protein 1 L130A mutant expressed in Escherichia coli BL21 cells at 40 uM after 3 hrs by fluorescence polarization competition assay
[7] = target: Bcl-2-like protein 1 (Homo sapiens, UniProt Q07817, R100E); experiment: Displacement of BODIPY-Bak conjugated peptide from GST-tagged human Bcl-2-like protein 1 R100E mutant expressed in Escherichia coli BL21 cells at 40 uM after 3 hrs by fluorescence polarization competition assay
[8] = target: Bcl-2-like protein 1 (Homo sapiens, UniProt Q07817, V141A); experiment: Displacement of BODIPY-Bak conjugated peptide from GST-tagged human Bcl-2-like protein 1 V141A mutant expressed in Escherichia coli BL21 cells at 40 uM after 3 hrs by fluorescence polarization competition assay
[9] = target: Bcl-2-like protein 1 (Homo sapiens, UniProt Q07817, Y195F); experiment: Displacement of BODIPY-Bak conjugated peptide from GST-tagged human Bcl-2-like protein 1 Y195F mutant expressed in Escherichia coli BL21 cells at 40 uM after 3 hrs by fluorescence polarization competition assay
[10] = target: Bcl-2-like protein 1 (Homo sapiens, UniProt Q07817, G196A); experiment: Displacement of BODIPY-Bak conjugated peptide from GST-tagged human Bcl-2-like protein 1 G196A mutant expressed in Escherichia coli BL21 cells at 40 uM after 3 hrs by fluorescence polarization competition assay
[11] = target: Bcl-2-like protein 1 (Homo sapiens, UniProt Q07817, E96G); experiment: Displacement of BODIPY-Bak conjugated peptide from GST-tagged human Bcl-2-like protein 1 E96G mutant expressed in Escherichia coli BL21 cells at 40 uM after 3 hrs by fluorescence polarization competition assay
[12] = target: Bcl-2-like protein 1 (Homo sapiens, UniProt Q07817, Y101H); experiment: Displacement of BODIPY-Bak conjugated peptide from GST-tagged human Bcl-2-like protein 1 Y101H mutant expressed in Escherichia coli BL21 cells at 40 uM after 3 hrs by fluorescence polarization competition assay
[13] = target: Bcl-2-like protein 1 (Homo sapiens, UniProt Q07817, A142G); experiment: Displacement of BODIPY-Bak conjugated peptide from GST-tagged human Bcl-2-like protein 1 A142G mutant expressed in Escherichia coli BL21 cells at 40 uM after 3 hrs by fluorescence polarization competition assay
[14] = target: Bcl-2-like protein 1 (Homo sapiens, UniProt Q07817, A93V); experiment: Displacement of BODIPY-Bak conjugated peptide from GST-tagged human Bcl-2-like protein 1 A93V mutant expressed in Escherichia coli BL21 cells at 40 uM after 3 hrs by fluorescence polarization competition assay
[15] = target: Bcl-2-like protein 1 (Homo sapiens, UniProt Q07817, A142T); experiment: Displacement of BODIPY-Bak conjugated peptide from GST-tagged human Bcl-2-like protein 1 A142T mutant expressed in Escherichia coli BL21 cells at 40 uM after 3 hrs by fluorescence polarization competition assay
[16] = target: T2, Bcl-2-like protein 1; experiment: Displacement of BODIPY-Bak conjugated peptide from GST-tagged human Wild type Bcl-2-like protein 1 expressed in Escherichia coli BL21 cells at 40 uM after 3 hrs by fluorescence polarization competition assay
[17] = target: T3, Bcl-2-like protein 1; experiment: Displacement of BODIPY-Bak conjugated peptide from GST-tagged human Bcl-2-like protein 1 L130V mutant expressed in Escherichia coli BL21 cells at 40 uM after 3 hrs by fluorescence polarization competition assay
[18] = target: T4, Bcl-2-like protein 1; experiment: Displacement of BODIPY-Bak conjugated peptide from GST-tagged human Bcl-2-like protein 1 L130G mutant expressed in Escherichia coli BL21 cells at 40 uM after 3 hrs by fluorescence polarization competition assay
[19] = target: Bcl-2-like protein 1 (Homo sapiens, UniProt Q07817, E129H); experiment: Displacement of BODIPY-Bak conjugated peptide from GST-tagged human Bcl-2-like protein 1 E129H mutant expressed in Escherichia coli BL21 cells at 40 uM after 3 hrs by fluorescence polarization competition assay
[20] = Displacement of BODIPY-Bak conjugated peptide from GST-tagged human Bcl-2-like protein 1 delta136T mutant expressed in Escherichia coli BL21 cells at 40 uM after 3 hrs by fluorescence polarization competition assay
[21] = target: Bcl-2-like protein 1 (Homo sapiens, UniProt Q07817, F97V); experiment: Displacement of BODIPY-Bak conjugated peptide from GST-tagged human Bcl-2-like protein 1 F97V mutant expressed in Escherichia coli BL21 cells at 40 uM after 3 hrs by fluorescence polarization competition assay
[22] = Displacement of BODIPY-Bak conjugated peptide from GST-tagged human Bcl-2-like protein 1 A142G, delta136T mutant expressed in Escherichia coli BL21 cells at 40 uM after 3 hrs by fluorescence polarization competition assay

T4 sequence (Q07817 whole entry L130G): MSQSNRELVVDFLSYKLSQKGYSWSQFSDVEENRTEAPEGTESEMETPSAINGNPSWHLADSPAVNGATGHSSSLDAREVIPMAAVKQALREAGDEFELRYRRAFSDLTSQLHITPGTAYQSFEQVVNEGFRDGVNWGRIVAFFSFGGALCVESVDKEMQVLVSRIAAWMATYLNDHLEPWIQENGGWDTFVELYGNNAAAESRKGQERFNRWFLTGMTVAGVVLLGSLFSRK
T2 sequence (Q07817 whole entry): as the sequence (Q07817 whole entry L130G) above, with G130L counted along it
Chain of Induced myeloid leukemia cell differentiation protein Mcl-1 homolog (P97287 whole entry): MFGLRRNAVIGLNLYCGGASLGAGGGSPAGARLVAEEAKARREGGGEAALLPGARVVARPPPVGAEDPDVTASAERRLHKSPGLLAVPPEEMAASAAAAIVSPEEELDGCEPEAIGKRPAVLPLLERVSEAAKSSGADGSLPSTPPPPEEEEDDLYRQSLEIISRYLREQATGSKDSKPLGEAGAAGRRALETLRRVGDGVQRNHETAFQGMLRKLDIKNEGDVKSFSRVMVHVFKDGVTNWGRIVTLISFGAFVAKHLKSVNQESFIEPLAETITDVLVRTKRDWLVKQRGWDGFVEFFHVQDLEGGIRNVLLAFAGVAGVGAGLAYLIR
T3 sequence (Q07817 whole entry L130V): as the sequence (Q07817 whole entry L130G) above, with G130V counted along it
Chain of Bcl-2-like protein 1 (Homo sapiens, UniProt Q07817, E129H) (Q07817 whole entry E129H): as the sequence (Q07817 whole entry L130G) above, with E129H, G130L counted along it
Chain of Bcl-2-like protein 1 (Homo sapiens, UniProt Q07817, G196A) (Q07817 whole entry G196A): as the sequence (Q07817 whole entry L130G) above, with G130L, G196A counted along it
Chain of Bcl-2-like protein 1 (Homo sapiens, UniProt Q07817, R100E) (Q07817 whole entry R100E): as the sequence (Q07817 whole entry L130G) above, with R100E, G130L counted along it
Chain of Bcl-2-like protein 1 (Homo sapiens, UniProt Q07817, L130A) (Q07817 whole entry L130A): as the sequence (Q07817 whole entry L130G) above, with G130A counted along it
Chain of Bcl-2-like protein 1 (Homo sapiens, UniProt Q07817, Y101H) (Q07817 whole entry Y101H): as the sequence (Q07817 whole entry L130G) above, with Y101H, G130L counted along it
Chain of Bcl-2-like protein 1 (Homo sapiens, UniProt Q07817, E96G) (Q07817 whole entry E96G): as the sequence (Q07817 whole entry L130G) above, with E96G, G130L counted along it
Chain of Bcl-2-like protein 1 (Homo sapiens, UniProt Q07817, F97V) (Q07817 whole entry F97V): as the sequence (Q07817 whole entry L130G) above, with F97V, G130L counted along it
Chain of Bcl-2-like protein 1 (Homo sapiens, UniProt Q07817, Y195F) (Q07817 whole entry Y195F): as the sequence (Q07817 whole entry L130G) above, with G130L, Y195F counted along it
Chain of Bcl-2-like protein 1 (Homo sapiens, UniProt Q07817, A142T) (Q07817 whole entry A142T): as the sequence (Q07817 whole entry L130G) above, with G130L, A142T counted along it
Chain of Bcl-2-like protein 1 (Homo sapiens, UniProt Q07817, A93V) (Q07817 whole entry A93V): as the sequence (Q07817 whole entry L130G) above, with A93V, G130L counted along it
Chain of Bcl-2-like protein 1 (Homo sapiens, UniProt Q07817, V141A) (Q07817 whole entry V141A): as the sequence (Q07817 whole entry L130G) above, with G130L, V141A counted along it
Chain of Bcl-2-like protein 1 (Homo sapiens, UniProt Q07817, A142G) (Q07817 whole entry A142G): as the sequence (Q07817 whole entry L130G) above, with G130L, A142G counted along it

| Compound | Ki [1] [nM] | Ki [2] [nM] | Ki [3] [nM] | Ki [4] [nM] | Ki [5] [nM] | other results |
| --- | --- | --- | --- | --- | --- | --- |
| CSCC[C@H](NC(=O)[C@H](CCCNC(=N)N)NC(=O)[C@H](CCCNC(=N)N)NC(=O)[C@H](CC(C)C)NC(=O)[C@H](CCC(=O)O)NC(=O)[C@H](CCCNC(=N)N)NC(=O)CNC(=O)[C@H](Cc1ccc(O)cc1)NC(=O)[C@H](CCCNC(=N)N)NC(=O)[C@H](CCC(N)=O)NC(=O)[C@H](C)NC(=O)[C@H](C)NC(=O)[C@H](Cc1c[nH]c2ccccc12)NC(=O)[C@@H](N)CC(C)C)C(=O)N[C@@H](CO)C(=O)N[C@@H](CC(=O)O)C(=O)N[C@@H](CCC(=O)O)C(=O)N[C@@H](Cc1ccccc1)C(=O)N[C@@H](CCC(=O)O)C(=O)NCC(=O)N[C@@H](CO)C(=O)N[C@@H](Cc1ccccc1)C(=O)N[C@@H](CCCCN)C(=O)NCC(=O)N[C@@H](CC(C)C)C(=O)O |  |  |  |  |  | Ki [6]: 140 nM; Ki [7]: 55 nM; Ki [8]: 42 nM; Ki [9]: 4.5 nM; Ki [10]: 2.3 nM; Ki [11]: < 5 nM; Ki [12]: 96 nM; Ki [13]: < 1 nM; Ki [14]: < 1 nM; Ki [15]: 41 nM; Ki [16]: 3.2 nM; Ki [17]: 11 nM; Ki [18]: 660 nM; Ki [19]: 77 nM; Ki [20]: 8.5 nM; Ki [21]: 150 nM; Ki [22]: 9.8 nM |
| CC(C)[C@H]1CN(Cc2ccccc2C(F)(F)F)CCN1c1ccc(C(=O)NS(=O)(=O)c2ccc(N[C@H](CCN(C)C)CSc3ccccc3)c([N+](=O)[O-])c2)cc1 | 59 | 3.3 | 63 | 2000 | 83 |  |

Further lines, with some results ahead:

| Ki [1] [nM] | Ki [2] [nM] | Ki [3] [nM] | Ki [4] [nM] | Ki [5] [nM] | Compound | other results |
| --- | --- | --- | --- | --- | --- | --- |
| 49 | 3.5 | 11 | > 10000 | 200 | CN(C)CC[C@H](CSc1ccccc1)Nc1ccc(S(=O)(=O)NC(=O)c2ccc(N3CCN(Cc4ccccc4C(F)(F)F)CC3)cc2)cc1[N+](=O)[O-] |  |
| 55 | 1 | 3.7 | 1500 | 81 | C[C@@H]1CN(c2ccc(C(=O)NS(=O)(=O)c3ccc(N[C@H](CCN(C)C)CSc4ccccc4)c([N+](=O)[O-])c3)cc2)CCN1Cc1ccccc1C(F)(F)F |  |
| 170 | 68 | 96 | > 10000 | 140 | CC1CN(c2ccc(C(=O)NS(=O)(=O)c3ccc(N[C@H](CCN(C)C)CSc4ccccc4)c([N+](=O)[O-])c3)cc2)CC(C)N1Cc1ccccc1C(F)(F)F (some centres not stated) |  |
